# Key:
# Experiment in all cases: relative viability (nuclei count vs DMSO), 5 days (fraction); higher = more cells survive
# A-427 = system: A-427
# In short: (§1)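 Medians of duplicate plates are given as relative viability. That measure is the nuclei count in treated wells divided by the count in vehicle wells. Counts were taken on 4× images of lung cancer cell lines in 1536-well plates, 5 days after pin-tool dosing the day after seeding with one drug alone or a fixed anchor-drug dose plus five library-drug doses (not always all listed) in √10 steps.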
# COR-L 105 = system: COR-L 105
# In short: as §1
# ChaGo-K-1 = system: ChaGo-K-1
# In short: as §1
# EKVX = system: EKVX
# In short: as §1
# EMC-BAC-2 = system: EMC-BAC-2
# In short: as §1
# H3255 = system: H3255
# In short: as §1
# HCC-366 = system: HCC-366
# In short: as §1
# LK-2 = system: LK-2
# In short: as §1
# LOU-NH91 = system: LOU-NH91
# In short: as §1
# NCI-H1563 = system: NCI-H1563
# In short: as §1
# NCI-H1666 = system: NCI-H1666
# In short: as §1
# NCI-H1734 = system: NCI-H1734
# In short: as §1
# NCI-H1755 = system: NCI-H1755
# In short: as §1
# NCI-H1792 = system: NCI-H1792
# In short: as §1
# NCI-H1975 = system: NCI-H1975
# In short: as §1
# NCI-H2170 = system: NCI-H2170
# In short: as §1
# NCI-H23 = system: NCI-H23
# In short: as §1
# NCI-H441 = system: NCI-H441
# In short: as §1
# NCI-H520 = system: NCI-H520
# In short: as §1
# NCI-H596 = system: NCI-H596
# In short: as §1
# PC-3 [JPC-3] = system: PC-3 [JPC-3]
# In short: as §1
# SK-MES-1 = system: SK-MES-1
# In short: as §1
# SW 900 = system: SW 900
# In short: as §1
smiles,measurement,setting,value
CC1(C)CCC(c2ccc(Cl)cc2)=C(CN2CCN(c3ccc(C(=O)NS(=O)(=O)c4ccc(N[C@H](CCN5CCOCC5)CSc5ccccc5)c(S(=O)(=O)C(F)(F)F)c4)cc3)CC2)C1 [Navitoclax] + COc1cccc2cc(-c3nc([C@H]4CC[C@H](C(=O)O)CC4)n4ncnc(N)c34)[nH]c12 [OSI-027] (partner 0.5 µM),relative viability,A-427; first compound 0.005 µM,0.485
same,relative viability,A-427; first compound 0.01581 µM,0.525
same,relative viability,A-427; first compound 0.05 µM,0.444
same,relative viability,A-427; first compound 0.1581 µM,0.477
same,relative viability,A-427; first compound 0.5 µM,0.392
same,relative viability,COR-L 105; first compound 0.005 µM,0.663
same,relative viability,COR-L 105; first compound 0.01581 µM,1.01
same,relative viability,COR-L 105; first compound 0.05 µM,0.573
same,relative viability,COR-L 105; first compound 0.1581 µM,0.775
same,relative viability,COR-L 105; first compound 0.5 µM,0.582
same,relative viability,ChaGo-K-1; first compound 0.005 µM,0.548
same,relative viability,ChaGo-K-1; first compound 0.01581 µM,0.536
same,relative viability,ChaGo-K-1; first compound 0.05 µM,0.541
same,relative viability,ChaGo-K-1; first compound 0.1581 µM,0.55
same,relative viability,ChaGo-K-1; first compound 0.5 µM,0.6
same,relative viability,EKVX; first compound 0.005 µM,0.684
same,relative viability,EKVX; first compound 0.01581 µM,0.882
same,relative viability,EKVX; first compound 0.05 µM,0.651
same,relative viability,EKVX; first compound 0.1581 µM,0.686
same,relative viability,EKVX; first compound 0.5 µM,0.737
same,relative viability,EMC-BAC-2; first compound 0.005 µM,0.392
same,relative viability,EMC-BAC-2; first compound 0.01581 µM,0.362
same,relative viability,EMC-BAC-2; first compound 0.05 µM,0.382
same,relative viability,EMC-BAC-2; first compound 0.1581 µM,0.351
same,relative viability,EMC-BAC-2; first compound 0.5 µM,0.372
same,relative viability,H3255; first compound 0.005 µM,0.629
same,relative viability,H3255; first compound 0.01581 µM,0.643
same,relative viability,H3255; first compound 0.05 µM,0.568
same,relative viability,H3255; first compound 0.1581 µM,0.67
same,relative viability,H3255; first compound 0.5 µM,0.611
same,relative viability,HCC-366; first compound 0.005 µM,0.912
same,relative viability,HCC-366; first compound 0.01581 µM,0.941
same,relative viability,HCC-366; first compound 0.1581 µM,0.972
same,relative viability,HCC-366; first compound 0.5 µM,0.978
same,relative viability,LK-2; first compound 0.005 µM,0.204
same,relative viability,LK-2; first compound 0.01581 µM,0.256
same,relative viability,LK-2; first compound 0.05 µM,0.182
same,relative viability,LK-2; first compound 0.1581 µM,0.174
same,relative viability,LK-2; first compound 0.5 µM,0.193
same,relative viability,LOU-NH91; first compound 0.005 µM,0.775
same,relative viability,LOU-NH91; first compound 0.01581 µM,0.76
same,relative viability,LOU-NH91; first compound 0.05 µM,0.699
same,relative viability,LOU-NH91; first compound 0.1581 µM,0.755
same,relative viability,LOU-NH91; first compound 0.5 µM,0.661
same,relative viability,NCI-H1563; first compound 0.005 µM,0.737
same,relative viability,NCI-H1563; first compound 0.01581 µM,0.809
same,relative viability,NCI-H1563; first compound 0.05 µM,0.756
same,relative viability,NCI-H1563; first compound 0.1581 µM,0.824
same,relative viability,NCI-H1563; first compound 0.5 µM,0.812
same,relative viability,NCI-H1666; first compound 0.005 µM,0.823
same,relative viability,NCI-H1666; first compound 0.01581 µM,0.815
same,relative viability,NCI-H1666; first compound 0.05 µM,0.859
same,relative viability,NCI-H1666; first compound 0.1581 µM,0.758
same,relative viability,NCI-H1666; first compound 0.5 µM,0.839
same,relative viability,NCI-H1734; first compound 0.005 µM,0.617
same,relative viability,NCI-H1734; first compound 0.01581 µM,0.822
same,relative viability,NCI-H1734; first compound 0.1581 µM,0.53
same,relative viability,NCI-H1734; first compound 0.5 µM,0.622
same,relative viability,NCI-H1755; first compound 0.005 µM,0.683
same,relative viability,NCI-H1755; first compound 0.01581 µM,0.834
same,relative viability,NCI-H1755; first compound 0.05 µM,0.612
same,relative viability,NCI-H1755; first compound 0.1581 µM,0.649
same,relative viability,NCI-H1755; first compound 0.5 µM,0.671
same,relative viability,NCI-H1792; first compound 0.005 µM,0.747
same,relative viability,NCI-H1792; first compound 0.01581 µM,0.799
same,relative viability,NCI-H1792; first compound 0.05 µM,0.667
same,relative viability,NCI-H1792; first compound 0.1581 µM,0.726
same,relative viability,NCI-H1792; first compound 0.5 µM,0.705
same,relative viability,NCI-H1975; first compound 0.005 µM,0.764
same,relative viability,NCI-H1975; first compound 0.01581 µM,0.83
same,relative viability,NCI-H1975; first compound 0.05 µM,0.823
same,relative viability,NCI-H1975; first compound 0.1581 µM,0.688
same,relative viability,NCI-H1975; first compound 0.5 µM,0.677
same,relative viability,NCI-H2170; first compound 0.005 µM,0.669
same,relative viability,NCI-H2170; first compound 0.01581 µM,0.814
same,relative viability,NCI-H2170; first compound 0.05 µM,0.787
same,relative viability,NCI-H2170; first compound 0.1581 µM,0.647
same,relative viability,NCI-H2170; first compound 0.5 µM,0.551
same,relative viability,NCI-H23; first compound 0.005 µM,0.704
same,relative viability,NCI-H23; first compound 0.01581 µM,0.691
same,relative viability,NCI-H23; first compound 0.05 µM,0.529
same,relative viability,NCI-H23; first compound 0.1581 µM,0.582
same,relative viability,NCI-H23; first compound 0.5 µM,0.63
same,relative viability,NCI-H441; first compound 0.005 µM,0.732
same,relative viability,NCI-H441; first compound 0.01581 µM,0.635
same,relative viability,NCI-H441; first compound 0.05 µM,0.58
same,relative viability,NCI-H441; first compound 0.1581 µM,0.56
same,relative viability,NCI-H441; first compound 0.5 µM,0.849
same,relative viability,NCI-H520; first compound 0.01581 µM,0.231
same,relative viability,NCI-H520; first compound 0.05 µM,0.318
same,relative viability,NCI-H520; first compound 0.1581 µM,0.201
same,relative viability,NCI-H520; first compound 0.5 µM,0.31
same,relative viability,NCI-H596; first compound 0.005 µM,0.765
same,relative viability,NCI-H596; first compound 0.01581 µM,0.684
same,relative viability,NCI-H596; first compound 0.1581 µM,0.953
same,relative viability,NCI-H596; first compound 0.5 µM,0.8
same,relative viability,PC-3 [JPC-3]; first compound 0.005 µM,0.844
same,relative viability,PC-3 [JPC-3]; first compound 0.01581 µM,0.764
same,relative viability,PC-3 [JPC-3]; first compound 0.05 µM,0.768
same,relative viability,PC-3 [JPC-3]; first compound 0.1581 µM,0.809
same,relative viability,PC-3 [JPC-3]; first compound 0.5 µM,0.703
same,relative viability,SK-MES-1; first compound 0.005 µM,0.624
same,relative viability,SK-MES-1; first compound 0.01581 µM,0.681
same,relative viability,SK-MES-1; first compound 0.05 µM,0.525
same,relative viability,SK-MES-1; first compound 0.1581 µM,0.579
same,relative viability,SK-MES-1; first compound 0.5 µM,0.63
same,relative viability,SW 900; first compound 0.005 µM,0.497
same,relative viability,SW 900; first compound 0.01581 µM,0.681
same,relative viability,SW 900; first compound 0.05 µM,0.534
same,relative viability,SW 900; first compound 0.1581 µM,0.395
same,relative viability,SW 900; first compound 0.5 µM,0.546
